Results on 14 compounds are retold here after patent publication US20240116985A1, “STAPLED PEPTIDES AND METHODS THEREOF” (priority 2020, published 2024).

The target of the assay is T1, full-length beta-Catenin (Uniprot ID P35222) (Homo sapiens, UniProt P35222).
T1 construct: 10 nM full-length beta-Catenin (Uniprot ID P35222)
T1 sequence (P35222 1-781): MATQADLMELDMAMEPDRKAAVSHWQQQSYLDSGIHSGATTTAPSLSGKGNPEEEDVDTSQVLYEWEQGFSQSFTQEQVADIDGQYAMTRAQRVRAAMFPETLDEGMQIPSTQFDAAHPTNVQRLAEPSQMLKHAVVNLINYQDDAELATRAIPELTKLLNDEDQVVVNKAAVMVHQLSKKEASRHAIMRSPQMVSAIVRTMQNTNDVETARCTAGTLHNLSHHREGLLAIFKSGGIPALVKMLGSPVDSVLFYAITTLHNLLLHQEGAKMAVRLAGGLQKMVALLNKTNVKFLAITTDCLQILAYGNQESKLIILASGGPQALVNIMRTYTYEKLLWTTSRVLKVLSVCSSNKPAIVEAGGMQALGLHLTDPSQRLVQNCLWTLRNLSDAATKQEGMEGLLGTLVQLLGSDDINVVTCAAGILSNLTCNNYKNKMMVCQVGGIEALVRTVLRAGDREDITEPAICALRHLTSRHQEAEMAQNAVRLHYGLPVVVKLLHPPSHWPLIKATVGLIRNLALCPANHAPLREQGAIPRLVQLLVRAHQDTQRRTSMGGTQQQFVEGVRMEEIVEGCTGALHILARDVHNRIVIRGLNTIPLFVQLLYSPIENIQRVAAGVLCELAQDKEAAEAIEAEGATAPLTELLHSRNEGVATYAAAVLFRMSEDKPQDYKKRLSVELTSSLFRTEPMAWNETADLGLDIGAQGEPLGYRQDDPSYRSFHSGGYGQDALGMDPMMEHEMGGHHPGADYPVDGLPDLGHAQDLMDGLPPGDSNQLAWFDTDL
Briefly: Fluorescence polarization IC50 (beta-catenin / 5FAM-TCF4 10-53 competition). The assay is classed as binding. The following applies: fluorescence polarization; read-out: beta-Catenin FP IC50. In general terms: In fluorescence polarisation assays a small probe gives low polarisation when free and higher when bound to something large.

The structures appear in SMILES notation.

The term IC50 denotes the point on the concentration scale where inhibition reaches its midpoint. With `CC(=O)N1CCC[C@]12CC=CCCCC1(CCCC=CCCCOC(=O)N3CC[C@@](C(=O)N[C@@H](Cc4ccsc4)C(=O)N[C@@H](Cc4csc5ccccc45)C(=O)N[C@@H](CCC(N)=O)C(N)=O)(C3)NC(=O)[C@H](CC(N)=O)NC(=O)[C@H](Cc3ccccc3)NC(=O)[C@H](C)NC(=O)[C@H](C)NC(=O)[C@H](CC(N)=O)NC(=O)[C@H]([C@@H](C)O)NC1=O)NC(=O)[C@H](CC(C)(C)C)NC(=O)[C@H](CC(=O)O)NC2=O` (stereo partly drawn) [I-1559, Ac-PL3-Asp-Npg-B5-Thr-Asn-Ala-Ala-Phe-Asn-PyrS2-3Thi-BztA-Gln-NH2], the IC50 came out at 9680 nM.

As to `CC(=O)N1CCC[C@]12CC=CCCCC1(CCCC=CCCCOC(=O)N3CC[C@@](C(=O)N[C@@H](Cc4ccsc4)C(=O)N[C@@H](Cc4csc5ccccc45)C(=O)N[C@@H](CCC(N)=O)C(N)=O)(C3)NC(=O)[C@H](CC(N)=O)NC(=O)[C@H](Cc3ccccc3)NC(=O)[C@H](C)NC(=O)[C@H](C)NC(=O)[C@H](CC(N)=O)NC(=O)[C@H](CCC(N)=O)NC1=O)NC(=O)[C@H](CC(C)(C)C)NC(=O)[C@H](CC(=O)O)NC2=O` (stereo partly drawn) [I-1560, Ac-PL3-Asp-Npg-B5-Gln-Asn-Ala-Ala-Phe-Asn-PyrS2-3Thi-BztA-Gln-NH2], the IC50 came to 368 nM.

As to `CC(=O)N1CCC[C@]12CC=CCCCC1(CCCC=CCCCOC(=O)N3CC[C@@](C(=O)N[C@@H](Cc4ccsc4)C(=O)N[C@@H](Cc4csc5ccccc45)C(=O)N[C@@H](CCC(N)=O)C(N)=O)(C3)NC(=O)[C@H](CC(N)=O)NC(=O)[C@H](Cc3ccccc3)NC(=O)[C@H](C)NC(=O)[C@H](C)NC(=O)[C@H](CC(N)=O)NC(=O)[C@H](CO)NC1=O)NC(=O)[C@H](CC(C)(C)C)NC(=O)[C@H](CC(=O)O)NC2=O` (stereo partly drawn) [I-1561, Ac-PL3-Asp-Npg-B5-Ser-Asn-Ala-Ala-Phe-Asn-PyrS2-3Thi-BztA-Gln-NH2], the IC50 worked out at 2600 nM.

For `CC(=O)N1CCC[C@]12CC=CCCCC1(CCCC=CCCCOC(=O)N3CC[C@@](C(=O)N[C@@H](Cc4ccsc4)C(=O)N[C@@H](Cc4csc5ccccc45)C(=O)N[C@@H](CCC(N)=O)C(N)=O)(C3)NC(=O)[C@H](CC(N)=O)NC(=O)[C@H](Cc3ccccc3)NC(=O)[C@H](C)NC(=O)[C@H](C)NC(=O)[C@H](CC(N)=O)NC(=O)[C@H](CC(C)C)NC1=O)NC(=O)[C@H](CC(C)(C)C)NC(=O)[C@H](CC(=O)O)NC2=O` (stereo partly drawn) [I-1562, Ac-PL3-Asp-Npg-B5-Leu-Asn-Ala-Ala-Phe-Asn-PyrS2-3Thi-BztA-Gln-NH2], the concentration for half-maximal inhibition (IC50) is 5020 nM.

For `CC(=O)N1CCC[C@]12CC=CCCCC1(CCCC=CCCCOC(=O)N3CC[C@@](C(=O)N[C@@H](Cc4ccsc4)C(=O)N[C@@H](Cc4csc5ccccc45)C(=O)N[C@@H](CCC(N)=O)C(N)=O)(C3)NC(=O)[C@H](CC(N)=O)NC(=O)[C@H](Cc3ccccc3)NC(=O)[C@H](C)NC(=O)[C@H](C)NC(=O)[C@H](CC(N)=O)NC(=O)[C@H](CC(C)C)NC1=O)NC(=O)[C@H](CC(C)(C)C)NC(=O)[C@H](CC(=O)O)NC2=O` (stereo partly drawn) [I-1563, Ac-PL3-Asp-Npg-B5-Leu-Asn-Ala-Ala-Phe-Asn-PyrS2-3Thi-BztA-Gln-NH2], the IC50 was found to be 2850 nM.

In the case of `CC(=O)N1CCC[C@]12CC=CCCCC1(CCCC=CCCCOC(=O)N3CC[C@@](C(=O)N[C@@H](Cc4ccsc4)C(=O)N[C@@H](Cc4csc5ccccc45)C(=O)N[C@@H](CCC(N)=O)C(N)=O)(C3)NC(=O)[C@H](CC(N)=O)NC(=O)[C@H](Cc3ccccc3)NC(=O)[C@H](C)NC(=O)[C@H](C)NC(=O)[C@H](Cc3ccc(O)cc3)NC(=O)[C@H](CC(N)=O)NC1=O)NC(=O)[C@H](CC(C)(C)C)NC(=O)[C@H](CC(=O)O)NC2=O` (stereo partly drawn) [I-1568, Ac-PL3-Asp-Npg-B5-Asn-Tyr-Ala-Ala-Phe-Asn-PyrS2-3Thi-BztA-Gln-NH2], the half-maximal inhibitory concentration (IC50) was determined as 7180 nM.

`CC(=O)N1CCC[C@]12CC=CCCCC1(CCCC=CCCCOC(=O)N3CC[C@@](C(=O)N[C@@H](Cc4ccsc4)C(=O)N[C@@H](Cc4csc5ccccc45)C(=O)N[C@@H](CCC(N)=O)C(N)=O)(C3)NC(=O)[C@H](CC(N)=O)NC(=O)[C@H](Cc3ccccc3)NC(=O)[C@H](C)NC(=O)[C@H](C)NC(=O)[C@H](Cc3ccc(O)cc3)NC(=O)[C@H](CC(N)=O)NC1=O)NC(=O)[C@H](CC(C)(C)C)NC(=O)[C@H](CC(=O)O)NC2=O` (stereo partly drawn) [I-1569, Ac-PL3-Asp-Npg-B5-Asn-Tyr-Ala-Ala-Phe-Asn-PyrS2-3Thi-BztA-Gln-NH2]: the IC50 stood at 2660 nM.

Consider `CC(=O)N1CCC[C@]12CC=CCCCC1(CCCC=CCCCOC(=O)N3CC[C@@](C(=O)N[C@@H](Cc4ccsc4)C(=O)N[C@@H](Cc4csc5ccccc45)C(=O)N[C@@H](CCC(N)=O)C(N)=O)(C3)NC(=O)[C@H](CC(N)=O)NC(=O)[C@H](Cc3ccccc3)NC(=O)[C@H](C)NC(=O)[C@H](C)NC(=O)[C@H](CC(C)C)NC(=O)[C@H](CC(N)=O)NC1=O)NC(=O)[C@H](CC(C)(C)C)NC(=O)[C@H](CC(=O)O)NC2=O` (stereo partly drawn) [I-1570, Ac-PL3-Asp-Npg-B5-Asn-Leu-Ala-Ala-Phe-Asn-PyrS2-3Thi-BztA-Gln-NH2], for which the IC50 is 1340 nM.

`CC(=O)N1CC2CC1C(=O)N[C@@H](CC(=O)O)C(=O)N[C@@H](CC(C)(C)C)C(=O)NC1(CCCC=CCCCOC(=O)N3CC[C@@](C(=O)N[C@@H](Cc4ccsc4)C(=O)N[C@@H](Cc4csc5ccccc45)C(=O)N[C@@H](CCC(N)=O)C(N)=O)(C3)NC(=O)[C@H](CC(N)=O)NC(=O)[C@H](Cc3ccccc3)NC(=O)[C@H](C)NC(=O)[C@H](C)NC(=O)[C@H](CC(=O)O)NC(=O)[C@H](CC(=O)O)NC1=O)CCCC=CCC(=O)O2` (stereo partly drawn) [I-1575, Ac-HypEs4-Asp-Npg-B5-Asp-Asp-Ala-Ala-Phe-Asn-PyrS2-3Thi-BztA-Gln-NH2]: the IC50 came out at 79 nM.

`CC(=O)N1CCC[C@]12CC=CCCCC1(CCCC=CCCCOC(=O)N3CC[C@@](C(=O)N[C@@H](Cc4ccccc4)C(=O)N[C@@H](Cc4csc5ccccc45)C(=O)N[C@@H](CCC(N)=O)C(N)=O)(C3)NC(=O)[C@H](CC(C)C)NC(=O)[C@H](Cc3ccccc3)NC(=O)[C@H](C)NC(=O)[C@H](CCCCNC(C)C)NC(=O)[C@H]([C@@H](C)O)NC(=O)[C@H](CC(=O)O)NC1=O)NC(=O)[C@H](Cc1ccccc1)NC(=O)[C@H](CC(N)=O)NC2=O` (stereo partly drawn) [I-1580, Ac-PL3-Asn-Phe-B5-Asp-Thr-iPrLys-Ala-Phe-Leu-PyrS2-Phe-BztA-Gln-NH2]: the half-maximal inhibitory concentration (IC50) came to 1430 nM.

Consider `CC(=O)N1CCC[C@]12CC=CCCCC1(CCCC=CCCCOC(=O)N3CC[C@@](C(=O)N[C@@H](Cc4ccccc4)C(=O)N[C@@H](Cc4csc5ccccc45)C(=O)N[C@@H](CCC(N)=O)C(N)=O)(C3)NC(=O)[C@H](CC(C)C)NC(=O)[C@H](Cc3ccccc3)NC(=O)[C@H](C)NC(=O)[C@H](CCCCNC(C)C)NC(=O)[C@H]([C@@H](C)O)NC(=O)[C@H](CC(=O)O)NC1=O)NC(=O)[C@H](CC(C)C)NC(=O)[C@H](CC(N)=O)NC2=O` (stereo partly drawn) [I-1582, Ac-PL3-Asn-Leu-B5-Asp-Thr-iPrLys-Ala-Phe-Leu-PyrS2-Phe-BztA-Gln-NH2], for which the IC50 is 1220 nM.

Regarding `CC(=O)N1CCC[C@]12CC=CCCCC1(CCCC=CCCCOC(=O)N3CC[C@@](C(=O)N[C@@H](Cc4ccccc4)C(=O)N[C@@H](Cc4csc5ccccc45)C(=O)N[C@@H](CCC(N)=O)C(N)=O)(C3)NC(=O)[C@H](CC(C)C)NC(=O)[C@H](Cc3ccccc3)NC(=O)[C@H](C)NC(=O)[C@H](CCCCNC(C)C)NC(=O)[C@H]([C@@H](C)O)NC(=O)[C@H](CC(=O)O)NC1=O)NC(=O)[C@H](CO)NC(=O)[C@H](CC(N)=O)NC2=O` (stereo partly drawn) [I-1583, Ac-PL3-Asn-Ser-B5-Asp-Thr-iPrLys-Ala-Phe-Leu-PyrS2-Phe-BztA-Gln-NH2], the IC50 was found to be 3420 nM.

As for `CC(=O)N1CCC[C@]12CC=CCCCC1(CCCC=CCCCOC(=O)N3CC[C@@](C(=O)N[C@@H](Cc4ccccc4)C(=O)N[C@@H](Cc4csc5ccccc45)C(=O)N[C@@H](CCC(N)=O)C(N)=O)(C3)NC(=O)[C@H](CC(C)C)NC(=O)[C@H](Cc3ccccc3)NC(=O)[C@H](C)NC(=O)[C@H](CCCCNC(C)C)NC(=O)[C@H]([C@@H](C)O)NC(=O)[C@H](CC(=O)O)NC1=O)NC(=O)[C@H](CCC(N)=O)NC(=O)[C@H](CC(N)=O)NC2=O` (stereo partly drawn) [I-1584, Ac-PL3-Asn-Gln-B5-Asp-Thr-iPrLys-Ala-Phe-Leu-PyrS2-Phe-BztA-Gln-NH2], the IC50 came to 2440 nM.

`CC(=O)N1CCC[C@]12CC=CCCCC1(CCCC=CCCCOC(=O)N3CC[C@@](C(=O)N[C@@H](Cc4ccccc4)C(=O)N[C@@H](Cc4csc5ccccc45)C(=O)N[C@@H](CCC(N)=O)C(N)=O)(C3)NC(=O)[C@H](CC(C)C)NC(=O)[C@H](Cc3ccccc3)NC(=O)[C@H](C)NC(=O)[C@H](CCCCNC(C)C)NC(=O)[C@H]([C@@H](C)O)NC(=O)[C@H](CC(=O)O)NC1=O)NC(=O)[C@H](CCCCNC(C)C)NC(=O)[C@H](CC(N)=O)NC2=O` (stereo partly drawn) [I-1591, Ac-PL3-Asn-iPrLys-B5-Asp-Thr-iPrLys-Ala-Phe-Leu-PyrS2-Phe-BztA-Gln-NH2]: the IC50 was 3110 nM.
